From PMC3023919 (Chemistry & biology, 2010)
pKi: −log10 of the molar value.

Assays:
hCB2 C7.38(284)A = hCB2 C7.38(284)A (Homo sapiens, UniProt P34972, C284A); test: Saturation-binding assay with [^3H]-CP55940; settings: HEK293 membranes; mean (95% CI)
hCB2 C7.42(288)A = hCB2 C7.42(288)A (Homo sapiens, UniProt P34972, C288A); test: Saturation-binding assay with [^3H]-CP55940; settings: HEK293 membranes; mean (95% CI)
hCB2 C6.47(257)S = hCB2 C6.47(257)S (Homo sapiens, UniProt P34972, C257S); test: Saturation-binding assay with [^3H]-CP55940; settings: HEK293 membranes; mean (95% CI)
hCB2 C7.38(284)S = hCB2 C7.38(284)S (Homo sapiens, UniProt P34972, C284S); test: Saturation-binding assay with [^3H]-CP55940; settings: HEK293 membranes; mean (95% CI)
[1] = target: hCB2 C7.38(284)7.42(288)S (Homo sapiens, UniProt P34972, C284S/C288S); test: Saturation-binding assay with [^3H]-CP55940; settings: HEK293 membranes; mean (95% CI)
hCB2 C137S = hCB2 C137S (Homo sapiens, UniProt P34972, C134S); test: Saturation-binding assay with [^3H]-CP55940; settings: HEK293 membranes; mean (95% CI)
[2] = target: hCB2 C7.38(284)7.42(288)A (Homo sapiens, UniProt P34972, C284A/C288A); test: Saturation-binding assay with [^3H]-CP55940; settings: HEK293 membranes; mean (95% CI)
hCB2 C313S = hCB2 C313S (Homo sapiens, UniProt P34972, C313S); test: Saturation-binding assay with [^3H]-CP55940; settings: HEK293 membranes; mean (95% CI)
hCB2 C7.42(288)S = hCB2 C7.42(288)S (Homo sapiens, UniProt P34972, C288S); test: Saturation-binding assay with [^3H]-CP55940; settings: HEK293 membranes; mean (95% CI)
hCB2 C1.39(40)S = hCB2 C1.39(40)S (Homo sapiens, UniProt P34972, C40S); test: Saturation-binding assay with [^3H]-CP55940; settings: HEK293 membranes, mean (95% CI)
hCB2 C175S = hCB2 C175S (Homo sapiens, UniProt P34972, C175S); test: Saturation-binding assay with [^3H]-CP55940; settings: HEK293 membranes; mean (95% CI)
hCB2 WT = hCB2 WT (Homo sapiens, UniProt P34972); test: Saturation-binding assay with [^3H]-CP55940; settings: HEK293 membranes; mean (95% CI)
hCB2 = settings: read-out: hCB2 Ki; ref Rinaldi-Carmona et al., 1998; cited from earlier work
hCB2 C6.47(257)S mutant = settings: competitive binding with [^3H]-WIN55212-2; ref Pei et al., 2008; cited from earlier work

Chain of hCB2 C1.39(40)S (P34972 whole entry C40S): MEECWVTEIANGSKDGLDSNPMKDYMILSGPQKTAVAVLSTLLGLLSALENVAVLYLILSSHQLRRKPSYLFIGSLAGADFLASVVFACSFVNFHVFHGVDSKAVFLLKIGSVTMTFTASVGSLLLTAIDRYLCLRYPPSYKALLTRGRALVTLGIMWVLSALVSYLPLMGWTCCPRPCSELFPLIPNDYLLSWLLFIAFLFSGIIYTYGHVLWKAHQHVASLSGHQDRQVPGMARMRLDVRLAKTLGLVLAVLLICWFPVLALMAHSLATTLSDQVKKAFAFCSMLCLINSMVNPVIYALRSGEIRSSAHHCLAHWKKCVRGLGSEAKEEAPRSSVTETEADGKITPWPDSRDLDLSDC
Chain of hCB2 C6.47(257)S (P34972 whole entry C257S): as the sequence (P34972 whole entry C40S) above, with S40C, C257S counted along it
Chain of hCB2 C7.42(288)S (P34972 whole entry C288S): as the sequence (P34972 whole entry C40S) above, with S40C, C288S counted along it
Chain of hCB2 C7.42(288)A (P34972 whole entry C288A): as the sequence (P34972 whole entry C40S) above, with S40C, C288A counted along it
Chain of hCB2 C313S (P34972 whole entry C313S): as the sequence (P34972 whole entry C40S) above, with S40C, C313S counted along it
Chain of hCB2 WT (P34972 whole entry): as the sequence (P34972 whole entry C40S) above, with S40C counted along it
Chain of hCB2 C7.38(284)S (P34972 whole entry C284S): as the sequence (P34972 whole entry C40S) above, with S40C, C284S counted along it
Chain of hCB2 C7.38(284)A (P34972 whole entry C284A): as the sequence (P34972 whole entry C40S) above, with S40C, C284A counted along it
Chain of hCB2 C7.38(284)7.42(288)A (P34972 whole entry C284A/C288A): as the sequence (P34972 whole entry C40S) above, with S40C, C284A, C288A counted along it
Chain of hCB2 C7.38(284)7.42(288)S (P34972 whole entry C284S/C288S): as the sequence (P34972 whole entry C40S) above, with S40C, C284S, C288S counted along it
Chain of hCB2 C175S (P34972 whole entry C175S): as the sequence (P34972 whole entry C40S) above, with S40C, C175S counted along it
Chain of hCB2 C137S (P34972 whole entry C134S): as the sequence (P34972 whole entry C40S) above, with S40C, C134S counted along it

CCCCCCC(C)(C)c1ccc([C@@H]2C[C@H](O)CC[C@H]2CCCO)c(O)c1 [[^3H]-CP55940]
[^3H]-CP55940 Bmax (hCB2 C7.38(284)A): 1.15 (1.03~1.26) pmol/mg | [^3H]-CP55940 Bmax (hCB2 C7.42(288)A): 1.93 (1.69~2.17) pmol/mg | [^3H]-CP55940 Bmax (hCB2 C6.47(257)S): 1.58 (1.50~1.66) pmol/mg | [^3H]-CP55940 Bmax (hCB2 C7.38(284)S): 1.28 (1.21~1.36) pmol/mg | [^3H]-CP55940 Bmax [1]: 1.38 (1.28~1.48) pmol/mg | [^3H]-CP55940 Bmax (hCB2 C137S): 1.50 (1.31~1.70) pmol/mg | [^3H]-CP55940 Bmax [2]: 1.12 (1.04~1.20) pmol/mg | [^3H]-CP55940 Bmax (hCB2 C313S): 1.07 (1.01~1.13) pmol/mg | [^3H]-CP55940 Bmax (hCB2 C7.42(288)S): 1.07 (1.01~1.13) pmol/mg | [^3H]-CP55940 Bmax (hCB2 C1.39(40)S): 5.45 (4.99~5.92) pmol/mg | [^3H]-CP55940 Bmax (hCB2 C1.39(40)S; listed as CP55940): 5.45 pmol/mg | [^3H]-CP55940 Bmax (hCB2 C175S): 1.69 (1.61~1.78) pmol/mg | [^3H]-CP55940 Bmax (hCB2 WT): 1.68 (1.61~1.74) pmol/mg

SR144528
pKi (hCB2): 9.22 | increased affinity relative to WT hCB2 (hCB2 C6.47(257)S mutant): 2-3 fold
